Results taken from PubChem BioAssay (NCI).
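Protocol summary: plate cells (96-well), add compound at 5 concentrations, incubate 48 h, interpolate endpoints linearly. GI50 marks 50% less growth. TGI is the concentration that stops growth completely.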

Legend:
Test in all cases: DTP human tumour cell line panel, 48 h
[1] = system: TK-10 renal
[2] = system: UO-31 renal
[3] = system: HCT-15 colon
[4] = system: LOX IMVI melanoma
[5] = system: BT-549 breast
[6] = system: NCI-H23 lung
[7] = system: HOP-62 NSCLC
[8] = system: A498 renal
[9] = system: UACC-257 melanoma
[10] = system: SK-MEL-5 melanoma
[11] = system: MOLT-4 leukemia
[12] = system: HCC-2998 colon
[13] = system: 786-0 renal
[14] = system: MALME-3M melanoma
[15] = system: SN12C renal
[16] = system: KM12 colon
[17] = system: COLO 205 colon
[18] = system: SF-539 CNS
[19] = system: MCF7 breast
[20] = system: A549 NSCLC
[21] = system: HCT-116 colon
[22] = system: SNB-75 CNS
[23] = system: SF-268 CNS
[24] = system: HS 578T breast
[25] = system: IGROV1 ovarian
[26] = system: OVCAR-4 ovarian
[27] = system: OVCAR-8 ovarian
[28] = system: SK-MEL-28 melanoma

In the case of CNC(=O)c1cncc(/C=C/c2c(Cl)cccc2Cl)c1, the GI50 [1] is reported as 12.9 µM, the TGI [1] is reported as > 25 µM and the GI50 [2] is reported as 6.69 µM. The TGI [2] was > 25 µM, the GI50 [3] was > 22.4 µM and the TGI [3] was > 25 µM. The GI50 [4] was > 19.6 µM, the TGI [4] was > 25 µM and the GI50 [5] was > 25 µM. The TGI [5] was > 25 µM, the GI50 [6] was > 25 µM and the TGI [6] was > 25 µM. The GI50 [7] was > 25 µM, the TGI [7] was > 25 µM and the GI50 [8] was 7.44 µM. The TGI [8] was > 25 µM, the GI50 [9] was 24.7 µM and the TGI [9] was > 25 µM. The GI50 [10] was 14.5 µM, the TGI [10] was > 25 µM and the GI50 [11] was > 21.9 µM. The TGI [11] was > 25 µM, the GI50 [12] was > 25 µM and the TGI [12] was > 25 µM. For the same molecule, the GI50 [13] was > 25 µM, the TGI [13] was > 25 µM and the GI50 [14] was 12.9 µM. For the same molecule, the TGI [14] was > 25 µM, the GI50 [15] was > 21 µM and the TGI [15] was > 25 µM. For the same molecule, the GI50 [16] was > 22.4 µM, the TGI [16] was > 25 µM and the GI50 [17] was > 25 µM. For the same molecule, the TGI [17] was > 25 µM, the GI50 [18] was 9.43 µM and the TGI [18] was > 25 µM. The GI50 [19] was > 25 µM, the TGI [19] was > 25 µM and the GI50 [20] was > 25 µM. For the same molecule, the TGI [20] was > 25 µM, the GI50 [21] was > 25 µM and the TGI [21] was > 25 µM. The GI50 [22] was 2.89 µM, the TGI [22] was > 16.1 µM and the GI50 [23] was 22.7 µM. The TGI [23] was > 25 µM, the GI50 [24] was 7.17 µM and the TGI [24] was > 21.6 µM. The GI50 [25] was > 17.9 µM, the TGI [25] was > 25 µM and the GI50 [26] was 21.9 µM. For the same molecule, the TGI [26] was > 25 µM, the GI50 [27] was > 25 µM and the TGI [27] was > 25 µM. For the same molecule, the GI50 [28] was > 25 µM and the TGI [28] was > 25 µM.
